Patent US5684003A, “5-HT4 receptor agonists” (Nisshin Flour Milling Co., Ltd., priority 1994, dated 1997)
pEC50: −log10 of the molar value. Like-named read-outs stand apart in the source and are kept apart here.

How the values were obtained:
5-HT4 receptor = 5-HT4 receptor (Cavia porcellus, UniProt O70528); assay: Increase in contraction height of electrically stimulated longitudinal muscle of isolated guinea pig ileum (LMMP); type: cell-based; set-up: key: +: indicates the increase in the contraction height; -: indicates no effect; settings: test concentration 10^-7 M
Excerpt: Ileum was excised from guinea pigs to prepare longitudinal muscle samples with approximately 2 cm length. The sample was suspended in Krebs-Henseleit liquid bath supplied with a mixed gas (95% O2, 5% CO2) and subjected to electrical stimulation (1 msec, 0.1 Hz) to record contraction force isometrically. The test compounds were. dissolved in distilled water or DMSO and tested at a concentration of 10^-7 M (but 10^-6 M for Compound 11). The results are shown by the presence or absence of the increase in the contraction height by electrical stimulation before administration of the compound, wherein the symbol "+" indicates the increase in the contraction height, while "-" indicates no effect.
Whether or not the action of the above compounds is that via activation of 5-HT4 receptors was investigated using as 5-HT4 receptor antagonist, SDZ 205-557 (2-methoxy-4-amino-5-chlorobenzoic acid 2-(diethylamino)ethyl ester) described in Naunyn-Schmiedeberg's Arch Pharmacol (1992) 345:387-393. Thus, the investigation as to whether SDZ 205-557 can antagonize the increase in the contraction height of the above compounds using the longitudinal muscle preparation of the isolated guinea pig ileum can reveal that such increase in the contraction height is the action via activation of 5-HT4 receptors.

5-HT4 receptors = target: T1, 5-HT4 receptors (Rattus norvegicus, UniProt Q62758); assay: Relaxation of carbachol-contracted rat oesophageal tunica muscularis mucosae; type: cell-based
T1 construct: from tissue; host or cells: rat oesophageal tunica muscularis mucosae
Method: The agonistic activity of oxazabicyclo derivatives and Mosapride on 5-HT4 receptors was determined by the procedure mentioned in Naunyn-Schmiedeberg's Arch Pharmacol (1991) 343:439-446.
The rat oesophageal tunica muscularis mucosae were suspended in organ both containing Krebs-Henseleit solution aerated with a mixed gas (95% O2, 5% CO2) and contracted with carbachol (1×10^-6 M). After the contraction was stabilized, the cumulative administration of the compounds was performed to determine the relaxation of the rat oesophagus pre-contracted with carbachol. The concentration (ED50) to cause 50% relaxation of the carbachol-induced contraction was measured. The result is expressed in terms of -log ED50 and shown in the following table in which higher numerical value indicates higher activity.

5-HT3 receptor = target: T2, 5-HT3 receptor (Rattus norvegicus, UniProt P35563); assay: 5-HT3 receptor antagonist activity: inhibition of 2-Me-5-HT-induced reduction in heart rate in anesthetized rats; type: in vivo; settings: iv (jugular vein) 5 minutes before 2-Me-5-HT 0.1 mg/kg, read-out: IC50 (the source's name)
T2 construct: from tissue; host or cells: whole anesthetized rat (in vivo); endogenous receptor
T2 sequence (P35563 24-483): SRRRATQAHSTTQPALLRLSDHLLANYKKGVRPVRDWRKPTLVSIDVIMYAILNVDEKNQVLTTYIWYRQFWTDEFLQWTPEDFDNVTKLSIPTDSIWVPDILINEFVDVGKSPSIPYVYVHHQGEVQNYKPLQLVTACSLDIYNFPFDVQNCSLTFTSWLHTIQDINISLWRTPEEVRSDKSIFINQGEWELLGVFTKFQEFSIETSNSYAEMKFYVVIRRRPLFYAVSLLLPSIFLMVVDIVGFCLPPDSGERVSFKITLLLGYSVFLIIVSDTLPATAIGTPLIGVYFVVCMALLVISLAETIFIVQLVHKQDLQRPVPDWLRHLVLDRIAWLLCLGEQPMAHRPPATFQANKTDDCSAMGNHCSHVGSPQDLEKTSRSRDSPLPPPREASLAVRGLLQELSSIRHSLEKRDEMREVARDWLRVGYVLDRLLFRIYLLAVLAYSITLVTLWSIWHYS
Method: For the purpose of studying a receptor selectivity of the present compounds, the 5-HT3 receptor antagonist activity was tested in the following manner. Rats were anesthetized with urethane and heart rate was recorded through femoral artery. The 5-HT3 selective agonist, 2-methyl-5-hydroxytryptamine (2-Me-5-HT) was administered at 0.1 mg/kg through carotid arteries and transient reduction in heart rate was recorded. The test. compounds were administered through jugular vein at 5 minutes before the administration of 2-Me-5-HT, inhibitory rate of reduction in heart rate by the administration of 2-Me-5-HT was calculated and IC50 value was calculated from the inhibitory rate.

gastric-emptying = assay: Gastric-emptying promoting action (semi-solid test meal, fasted rats); type: in vivo, rat; settings: relative to distilled water group (C/D×100)
Method: The present compounds were evaluated for the gastrointestinal prokinetic action, employing as an index the gastric-emptying promoting action. Fasted rats were orally given the test compound or distilled water. After 60 minutes, 3 ml of a test meal (a semi-solid food) was given into stomach by means of a probe. After 60 minutes, animals were sacrificed and stomach was excised and weighed. After washing out the gastric content, the stomach was again weighed to calculate the gastric content amount. The results were shown in the following table by calculating the gastric emptying rate (C) from the weight of the test meal given (A) and the weight of the test meal retained in the stomach (B), and expressing in terms of the gastric-emptying promoting rate to the gastric-emptying rate of the distilled water-given group(D).
Gastric-emptying rate(C)=(A-B)/A×100
Gastric-emptying promoting rate=C/D×100

gastric motility = assay: Gastric motility after meal in beagle dogs (force transducer, Motility Index); type: in vivo, dog (beagle); settings: 60 min after feeding, percentage to MI at 15 minutes before administration
Method: The present compounds were investigated for the gastrointestinal motility activity by the following procedure, by which the gastrointestinal prokinetic action was confirmed.
Beagle dogs inserted with a forced transducer at the anterior wall of stomach were used after a convelescence period of more than one month.
Dogs fasted overnight were given a food (375 g of a dog food) and gastric motility after meal was determined. After 60 minutes of the feeding, the test compounds were intravenously injected and the promoting action on gastric motility after meal was determined. The area under contracting wave forms of gastric motility (Motility Index: MI) was calculated and expressed in terms of percentage to the MI at 15 minutes before the administration of the test compound.

[1] = Two-week repeated oral toxicological investigation in rats; type: in vivo, rat; settings: rats (male, female), 2 weeks, dose figure missing ("a dose of mg/kg")
Excerpt: (§1) The compound of Example 5 was repeatedly administered orally to rats (male, female) over the period of 2 weeks to perform a toxicological investigation.

[2] = Reverse mutation test (Ames test)
[3] = Chromosomal aberration test
Micronucleus test = assay: Micronucleus test
Excerpt: as §1

T1 sequence (Q62758 whole entry): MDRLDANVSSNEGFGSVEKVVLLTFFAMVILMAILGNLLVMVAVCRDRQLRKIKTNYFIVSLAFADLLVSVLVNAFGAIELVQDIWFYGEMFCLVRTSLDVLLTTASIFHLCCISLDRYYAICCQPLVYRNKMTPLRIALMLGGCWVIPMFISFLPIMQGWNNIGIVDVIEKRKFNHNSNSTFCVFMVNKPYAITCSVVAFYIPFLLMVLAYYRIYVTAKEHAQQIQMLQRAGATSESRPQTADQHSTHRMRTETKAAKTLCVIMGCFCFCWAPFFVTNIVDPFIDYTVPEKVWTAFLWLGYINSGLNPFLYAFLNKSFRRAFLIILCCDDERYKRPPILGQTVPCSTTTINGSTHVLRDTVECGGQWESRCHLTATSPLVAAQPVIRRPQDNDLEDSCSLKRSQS
5-HT4 receptor, sequence (O70528 whole entry): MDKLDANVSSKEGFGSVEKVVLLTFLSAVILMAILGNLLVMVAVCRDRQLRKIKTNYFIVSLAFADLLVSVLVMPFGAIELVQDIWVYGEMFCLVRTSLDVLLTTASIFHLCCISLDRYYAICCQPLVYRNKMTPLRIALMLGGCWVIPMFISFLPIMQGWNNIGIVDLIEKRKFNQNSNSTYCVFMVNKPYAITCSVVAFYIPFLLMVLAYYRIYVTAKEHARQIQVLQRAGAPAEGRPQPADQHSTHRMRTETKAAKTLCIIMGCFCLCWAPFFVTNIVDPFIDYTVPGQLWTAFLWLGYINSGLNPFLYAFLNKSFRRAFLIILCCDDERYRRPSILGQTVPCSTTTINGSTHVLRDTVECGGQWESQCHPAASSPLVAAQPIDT

CCCCN1[C@@H]2COC[C@H]1C[C@@H](NC(=O)c1nn(C(C)C)c3ccccc13)C2 [Example 5, N-[endo-9-(n-Butyl)-3-oxa-9-azabicyclo[3.3.1]non-7-yl]-1-isopropyl-indazole-3-carboxamide]
LMMP: presence or absence of the increase in the contraction height by electrical stimulation (5-HT4 receptor): + | pEC50 (5-HT4 receptors): 6.00 | ED50 (5-HT3 receptor): 0.0427 mg/kg | Gastric-emptying promoting rate (gastric-emptying; 0.03 mg/kg oral): 110.7 | Gastric-emptying promoting rate (gastric-emptying; 0.1 mg/kg oral): 124.2 | Gastric-emptying promoting rate (gastric-emptying; 0.3 mg/kg oral): 127.5 | MI (Motility Index) (gastric motility; 0.03 mg/kg iv): 145.8% | MI (Motility Index) (gastric motility; 0.1 mg/kg iv): 208.2% | MI (Motility Index) (gastric motility; 0.3 mg/kg iv): 324.9% | toxicological changes [1]: no toxicological changes were observed | reverse mutation test (Ames test) [2]: negative | mutagenicity ([2]; overall from Ames, chromosomal aberration and micronucleus tests): no mutagenicity was observed | chromosomal aberration test [3]: negative | micronucleus test (Micronucleus test): negative

CCOc1cc(N)c(Cl)cc1C(=O)NCC1CN(Cc2ccc(F)cc2)CCO1 (stereo not shown) [Mosapride, reference compound]
EC50 (5-HT4 receptors; ED50 = concentration to cause 50% relaxation of contraction by carbachol (1×10^-6 M), cumulative administration, read-out: Activity (-log ED50) (converted)): 34.7 µM | Gastric-emptying promoting rate (gastric-emptying; 0.3 mg/kg oral): 103.5 | Gastric-emptying promoting rate (gastric-emptying; 1 mg/kg oral): 125.3 | Gastric-emptying promoting rate (gastric-emptying; 3 mg/kg oral): 128.1 | MI (Motility Index) (gastric motility; 1 mg/kg iv): 151.0%
